How the values were obtained:
[1] = target: T1, human DOR (delta opioid receptor) (Homo sapiens, UniProt P41143); assay: […]-GTPgammaS coupling, membranes; assay type: biochemical; settings: antagonist mode against SNC80 curve; 30 °C, 1 h, 40 uM GDP; proposed covalent / irreversible
T1 construct: gene OPRD1; full-length receptor expressed in CHO-K1 cells

[2] = target: T2, human mu opioid receptor (MOR) (Homo sapiens, UniProt P35372); assay: competition radioligand binding, 3H-diprenorphine, membranes; settings: room temperature, 1 h, one-site fit; unreliable
T2 construct: gene OPRM1; full-length receptor expressed in CHO cells; membranes

[3] = target: T1, human DOR (delta opioid receptor); assay: as above
[4] = target: T1, human DOR (delta opioid receptor); assay: cAMP accumulation, live DOR-CHO cells; assay type: cell-based
[5] = target: T3, human kappa opioid receptor (KOR) (Homo sapiens, UniProt P41145); assay: competition radioligand binding, 3H-diprenorphine, membranes
T3 construct: gene OPRK1; full-length receptor expressed in CHO cells; membranes

## Oc1ccc2c3c1O[C@H]1c4[nH]c5ccc(/C=C/c6ccccn6)cc5c4C[C@@]4(O)[C@@H](C2)N(CC2CC2)CC[C@]314 [SRI-9342, (4bS,8R,8aS,14bR)-7-(Cyclopropylmethyl)-11-((E)-2-(pyridin-2-yl)vinyl)-5,6,7,8,14,14b-hexahydro-4,8-methanobenzofuro [2,3-a]pyrido[4,3-b]carbazole-1,8a(9H)-diol]
[1]
  % SNC80 efficacy (EMAX) at 1 nM: 84%

## O=C(C1CC1)N1CC[C@]23c4c5ccc(O)c4O[C@H]2c2ncc(-c4ccc(Cl)cc4)cc2C[C@@]3(O)[C@H]1C5 [SRI-45128, ((4bS,8R,8aS,13bR)-11-(4-Chlorophenyl)-1,8a-dihydroxy-5,6,8,8a,9,13b-hexahydro-7H-4,8-methanobenzofuro[3,2-h]pyrido[3,4-g]quinolin-7-yl)(cyclopropyl)methanone]
[2]
  KI: > 3,333 nM
[3]
  Ki: 24 ± 2 nM
[4]
  EC50: 770 nM
[5]
  Ki: 2500 ± 510 nM

## O=C(C1CC1)N1CC[C@]23c4c5ccc(O)c4O[C@H]2c2[nH]c4ccccc4c2C[C@@]3(O)[C@H]1C5 [SYK-623, Cyclopropyl((4bS,8R,8aS,14bR)-1,8a-dihydroxy-5,6,8a,9,14,14b-hexahydro-4,8-methanobenzofuro[2,3−a]pyrido [4,3−b]carbazol-7(8H)-yl)methanone]
[2]
  KI: > 3,333 nM
[3]
  Ki: 11 ± 1 nM
[4]
  EC50: 265 nM
[5]
  Ki: 2000 ± 290 nM

— PMC8587863, “Discovery of Novel Delta Opioid Receptor (DOR) Inverse Agonist and Irreversible (Non-Competitive) Antagonists” (Molecules, 2021)
